The test system of assay [1] is Human immunodeficiency virus 1. Briefly: Reactivation of HIV-1 latency infected in GFP-fused J-Lat 10.6 cells assessed as HIV-1 latency reactivation in reservoir cells at 2.24 uM incubated for 24 hrs flow cytometry analysis. It counts as functional.
A short description of assay [2]: Reduction in CD4 expression in human MT4 cells at 1.82 uM incubated for 24 hrs by flow cytometry analysis. It counts as functional. Details: scale not given: the % may be the effect or the level left.
A short description of assay [3]: Reduction in CD4 expression in human MT4 cells at 1.94 uM incubated for 24 hrs by flow cytometry analysis. It counts as functional. Further details: scale not given: the % may be the effect or the level left. In general terms: A flow cytometer gives signals particle by particle.
A short description of assay [4]: Reduction in CD4 expression in human MT4 cells at 1.77 uM incubated for 24 hrs by flow cytometry analysis. Further details: scale not given: the % may be the effect or the level left. It counts as functional.
The test system of another assay is MT4. As to the kind of experiment: Cytotoxicity against human MT4 cells assessed as cell viability at 1 ug/ml incubated for 24 hrs by CellTiter Blue viability assay. It counts as functional, cell-based. Particulars: dose 1.0 µg/ml. (The colour change of resazurin is a common sign of viable cells or microbes.)
The test system of assay [5] is Human immunodeficiency virus 1. As to the kind of experiment: Reactivation of HIV-1 latency infected in GFP-fused J-Lat 10.6 cells assessed as HIV-1 latency reactivation in reservoir cells at 0.097 to 9.7 uM incubated for 24 hrs flow cytometry analysis. It counts as functional. Particulars: dose 0.097-9.7 µM.
For assay [6], the system named is Human immunodeficiency virus 1. As to the kind of experiment: Reactivation of HIV-1 latency infected in GFP-fused J-Lat 10.6 cells assessed as HIV-1 latency reactivation in reservoir cells at 0.088 to 8.85 uM incubated for 24 hrs flow cytometry analysis. Particulars: dose 0.088-8.85 µM. It counts as functional.

On to `CCCCCC(=O)O[C@H]1C(C)=C[C@]23C(=O)[C@@H](C=C(CO)[C@@H](O)[C@]12O)[C@H]1[C@@H](C[C@H]3C)C1(C)C`, for which, in assay [1], the Activity is given as 70%.

For `C/C=C(/C)C(=O)O[C@@H]1[C@@H](C)[C@]2(O)[C@@H]3C=C(C)C(=O)[C@@]3(O)[C@H](O)C(C)=C[C@H]2[C@H]2C(C)(C)[C@]12OC(=O)C(C)C`, the Activity in assay [2] is 40%; in assay [3], 40%; in assay [4], 40%; in the assay on MT4 it was “Not toxic”; in assay [5] it was 70%.

Turning to `C/C=C(/C)C(=O)O[C@@H]1[C@@H](C)[C@]2(O)[C@@H]3C=C(C)C(=O)[C@@]3(O)[C@H](O)C(C)=C[C@H]2[C@H]2C(C)(C)[C@]12OC(=O)Cc1ccccc1`, the Activity in assay [6] was 70%; with MT4, “Not toxic”.

The values are drawn from ChEMBL document CHEMBL4825674, “Phorbol Esters from the Latex of Euphorbia umbellata: Bioguided Isolation of Highly Potent HIV-1 Latency Interrupters in Virus Reservoir Cells” (2021).
